Consider two compounds from patent US8912360B2, “Methods for preparing ritodrine hydrochloride” (Lundbeck Pharmaceuticals Italy S.p.A., priority 2010, dated 2014).

The nature of this data set: Stability / hygroscopicity: water content through Karl Fischer titration after storage. Format: physicochemical. The following applies: for hygroscopicity: hydrochloride. Here is the method:
The water content was determined through Karl Fischer (KF) titration.
Ritodrine hydrochloride Form I is kept at 40° C. and a relative humidity of 75% for 24 hours. The water content measured through Karl Fischer titration is 0.5% (weight/weight).
Ritodrine hydrochloride Form II is placed in a double polyethylene bag with a desiccant (silica gel) kept in standard conditions for storing active ingredients. After some months the water content of such Ritodrine hydrochloride measured through Karl Fischer titration is 2.2% (weight/weight).

Consider `C[C@@H](NCCc1ccc(O)cc1)[C@@H](O)c1ccc(O)cc1.Cl` (racemic) [Ritodrine hydrochloride Form II, 4-((1RS,2SR)-1-hydroxy-2-{[2-(4-hydroxyphenyl)ethyl]amino}propyl)phenol hydrochloride], for which the hygroscopicity result is listed as “hygroscopic”. Also, the “water content measured through Karl Fischer titration” value (double polyethylene bag with a desiccant (silica gel), standard conditions for storing active ingredients, after some months) is given as 2.2 % (weight/weight). Further, the water absorption result (not exposed directly to a humid environment, normal controlled storing conditions) is reported as “absorbs water”.
For the compound `C[C@@H](NCCc1ccc(O)cc1)[C@@H](O)c1ccc(O)cc1.Cl` (racemic) [Ritodrine hydrochloride Form I, 4-((1RS,2SR)-1-hydroxy-2-{[2-(4-hydroxyphenyl)ethyl]amino}propyl)phenol hydrochloride], the hygroscopicity entry is reported as “non-hygroscopic”. The water absorption entry (exposed to a relative humidity of 75%) is given as “does not absorb water”. Moreover, the “water content measured through Karl Fischer titration” value (kept at 40° C. and a relative humidity of 75% for 24 hours) was 0.5 % (weight/weight).
